Results on 3 molecules are retold here after paper PMC6297231 (Nature Communications, 2018).

Assay [1] has as its target T1, Mcl-1 (Homo sapiens, UniProt Q07820). In words: SPR direct binding assay. Further details: 6His-tagged Mcl-1 protein (E171-G327) was immobilized using NTA capture-coupling.
Target sequence in this assay (Q07820 171-327): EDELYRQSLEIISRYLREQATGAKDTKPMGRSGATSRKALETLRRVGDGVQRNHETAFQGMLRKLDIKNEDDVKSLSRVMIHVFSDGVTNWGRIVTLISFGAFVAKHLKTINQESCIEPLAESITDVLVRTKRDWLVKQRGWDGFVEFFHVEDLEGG
Method: A Biacore T200 instrument (GE Healthcare) was used to monitor binding interactions using a direct binding assay format. 6His-tagged Mcl-1 protein (E171-G327) was immobilized using NTA capture-coupling at a flow rate of 10 μL min^-1 and using an immobilization running buffer containing 10 mM HEPES, 300 mM NaCl, 1 mM TCEP, and 0.05% Tween-20 at 25 °C. […] Approximately 300 response units of Mcl-1 protein (2 μg mL^-1 in immobilization running buffer) were immobilized using the ‘aim for’ function in the T200 Control Software (GE Healthcare). Remaining reactive esters were blocked using a 7 min injection of 1 M ethanolamine. Reference flow cells were prepared without protein. All binding measurements were performed in 10 mM Tris, pH 7.5, 300 mM NaCl, 1 mM TCEP, 1% DMSO, and 0.02% Tween-20 at 25 °C at a flow rate of 30 μL min^-1. Buffer was primed through the instrument overnight to stabilize the surface before subsequent assay steps. Prior to kinetic analysis, solvent calibration and double referencing subtractions were made to eliminate bulk refractive index changes, injection noise, and data drift. Affinity and binding kinetic parameters were determined by global fitting to a 1:1-binding model within the Biacore T200 Evaluation Software (GE Healthcare).
In assay [2] the target is T1, Mcl-1. Kind of assay: TR-FRET binding assay. Further details: N-terminal GST-tagged-Mcl-1 protein from Mcl-1 (E171-G327); made in house; host or cells: E. coli. Here is the method: Percent inhibition was calculated based upon min (control compound) vs. max (DMSO) according to Eq. (2) and the IC50 was derived the smart fit curve (Genedata screener) of % inhibition vs. concentration. Ki values were calculated from Eq.
Target sequence in this assay (Q07820 171-327): as above

Assay [3] relates to MV411. Kind of assay: Caspase-3/7 activation assay. The settings on record: Homo sapiens, MV4-11. Type of assay: cell-based.
Method: (§1) Cells were plated at 3000 cells/well in 384-well white plates in corresponding cell growth media. […] Caspase-3/7 activation was subsequently determined using a Caspase-Glo 3/7 Reagent (Promega) and viability was assayed using the CellTiter-Glo Reagent (Promega) as described in manufacturer’s instructions. Dose–response curves for caspase-3/7 activation and viability were plotted and analyzed (including EC50 and GI50 determination) using GraphPad Prism.
Assay [4] has as its system MOLP8. Kind of assay: Caspase-3/7 activation assay. The settings on record: Homo sapiens, MOLP-8. The assay is classed as cell-based.
Method: as §1
The subject of assay [5] is H23. Kind of assay: Caspase-3/7 activation assay. Type of assay: cell-based. The settings on record: Homo sapiens, NCI-H23.
Method: as §1
The target of assay [6] is T1, Mcl-1. In words: 2D protein-observed NMR titration (TROSY). Type of assay: binding. Further details: The 6His-TEV-Mcl-1(162–326) construct in a pET vector was expressed in BL21-GOLD cells; 6His-TEV (N, cleaved yes); made in house; host or cells: E. coli BL21-GOLD. Here is the method:
The 6His-TEV-Mcl-1(162–326) construct in a pET vector was expressed in BL21-GOLD cells and inducted by IPTG. ^15N-labeled GS-Mcl-1 was obtained by growing cells in Isogro-15N (Sigma-Aldrich) media (5 g L^-1) containing 50 µg mL^-1 Kanamycin and 12.5 µg mL^-1 Tetracycline. Expression was induced at OD^600 = 0.8 with 0.1 mM IPTG. Cells were then incubated overnight at 30 °C, harvested by centrifugation and lysed by sonication in buffer H (40 mM Hepes pH 8.0, 300 mM NaCl, 10 mM imidazole, 1 mM TCEP), supplemented with 0.3 mg mL^-1 lysozyme, 2.5 U mL^-1 benzonase, and EDTA-free protease inhibitors (Roche). The sample was centrifuged and supernatant collected and incubated with Ni-NTA resin (60 min at 4 °C). […]
NMR spectra were recorded at 298 K on a Bruker Avance 600 MHz spectrometer running Topspin 2.3 equipped with a 5 mm TCI Cryoprobe with Z-axis gradients. […] Binding was detected by ^1H–^15N 2D Transverse relaxation optimized spectroscopy (TROSY) spectra of the protein (F2 × F1) 2048 × 50 complex pairs (in Echo-Antiecho mode), 12019 × 1800 Hz sweep width, 85.2 ms × 27.8 ms acquisition times. Compound titration was recorded from fresh compound stock in DMSO-d6, and spectra were recorded at ligand concentrations of 0.04, 0.08, 0.16, 0.32, 0.63, and 1.24 mM. […]
Target sequence in this assay (Q07820 162-326): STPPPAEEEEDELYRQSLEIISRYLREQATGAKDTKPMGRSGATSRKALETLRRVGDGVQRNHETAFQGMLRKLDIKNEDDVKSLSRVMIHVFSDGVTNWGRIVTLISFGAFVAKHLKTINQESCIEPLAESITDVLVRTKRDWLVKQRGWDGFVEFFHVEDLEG

Assay [7] has as its target T2, N-Terminal 6His-tagged Bfl-1 protein from Bfl-1 (M1-K151) (UniProt Q16548 1-151).
T2 construct: Bfl-1 (Bfl-1/A1), residues M1-K151; also called His-Bfl-1; source: E. coli, purified (Ni-NTA resin, size-exclusion chromatography); not shown: 6His, N-terminal, kept
T2 sequence (looked up): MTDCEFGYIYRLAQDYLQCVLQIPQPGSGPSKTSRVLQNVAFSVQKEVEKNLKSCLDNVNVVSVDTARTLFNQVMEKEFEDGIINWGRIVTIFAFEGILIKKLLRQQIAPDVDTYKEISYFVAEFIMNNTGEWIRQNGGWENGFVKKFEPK
In words: AlphaScreen or HTRF; TR-FRET: His-tagged protein with Eu-labeled anti-His antibody and HyLite Fluor 647-labeled peptide; 384-well plates, 24 °C, 120-180 min; how the peptide Kd was determined is not told. The settings on record: both partners purified. A general note: Alpha assays give light when donor and acceptor beads are brought close together.

Assay [8] has as its target T3, N-terminal GST-tagged-Mcl-1 protein from Mcl-1 (E171-G327) (human, UniProt Q07820 171-327).
T3 construct: Mcl-1, residues E171-G327; also called GST-Mcl-1; not shown: GST, N-terminal, kept
In words: AlphaScreen or HTRF; TR-FRET: GST-tagged protein with Eu-labeled anti-GST antibody and HyLite Fluor 647-labeled peptide; 384-well plates, 24 °C, 120-180 min; how the peptide Kd was determined is not told. The note with it: both partners purified.

The target of assay [9] is T4, N-terminal GST-tagged Bcl-xL protein from Bcl-xL (1-209) (UniProt Q07817-1 1-209).
T4 construct: Bcl-xL, residues 1-209; also called GST-Bcl-xl; not shown: GST, N-terminal, kept
Described as above. The note with it: both partners purified.

Where two headings read alike, the source gives them in different places. Where no end group is shown, it is not given here. Some results are limits rather than exact numbers.

T4 sequence (Q07817 1-209): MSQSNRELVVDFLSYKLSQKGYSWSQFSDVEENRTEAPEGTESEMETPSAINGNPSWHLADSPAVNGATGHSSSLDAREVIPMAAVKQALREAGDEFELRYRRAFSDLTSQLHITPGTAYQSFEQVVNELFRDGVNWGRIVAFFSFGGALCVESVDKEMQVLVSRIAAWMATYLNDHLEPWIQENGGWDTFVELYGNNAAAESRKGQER
T3 sequence (Q07820 171-327): as the sequence (Q07820 171-327) above

For `Cc1nn(C)c(C)c1-c1cccc2c(CCCOc3cccc4ccccc34)c(C(=O)O)[nH]c12` [Compound 2, reference compound], the Kd in assay [1] (mean of log transformed data, read-out: MCL1 SPR pKd (converted)) is 646 nM; in assay [1] (read-out: Mcl-1 SPR, Kd) it was 650 nM; in assay [6] (fast exchange shifts, second weaker binding event, read-out: Kd, binding event 2) it was 141000 ± 8000 nM; in [6] (slow exchange binding, read-out: Kd, binding event 1) it was < 5000 nM. Also, the IC50 in [2] (mean of log transformed data, read-out: MCL1 FRET pIC50 (converted)) was 288 nM; in assay [2] (read-out: Mcl-1 FRET, IC50), 290 nM. Also, the EC50 in assay [3] (caspase activation, Mcl-1-dependent cell line, read-out: MV4-11, EC50) is > 31500 nM; in assay [3] (mean of log transformed data, read-out: MV4-11 caspase pEC50 (converted)), > 31600 nM; in [4] (caspase activation, Mcl-1-dependent cell line, read-out: MOLP-8, EC50), > 31500 nM; in assay [4] (mean of log transformed data, read-out: MOLP-8 caspase pEC50 (converted)), > 31600 nM; in [5] (caspase activation, Mcl-1-dependent cell line, read-out: NCI-H23, EC50), > 31500 nM; in [5] (mean of log transformed data, read-out: NCI-H23 caspase pEC50 (converted)) it was > 31600 nM.

B1: HyLite Fluor 647-labeled Bim peptide C (Hilyte647 C2 Maleimide)-WIAQELRRIGDEFN (peptide)
peptide: C(HiLyte Fluor 647 C2 maleimide)WIAQELRRIGDEFN
notes: added N-terminal cysteine that carries the dye; Bim BH3 stretch; also called Hylite Bim peptide
Consider B1, for which the Kd in assay [7] worked out at 10 nM; in assay [8] it was 1.5 nM.

B2: HyLite Fluor 647-labeled BAK peptide C(Hilyte647 C2 Maleimide)-GGGQVGRQLAIIGDDINR (peptide)
peptide: C(HiLyte Fluor 647 C2 maleimide)GGGQVGRQLAIIGDDINR
notes: added N-terminal cysteine that carries the dye, and glycine spacer; Bak BH3 stretch; also called Hylite Bak peptide
Molecule B2 came in with a Kd in assay [9] of 10 nM.
